According to ChEMBL document CHEMBL1759931, “Potent and selective adenosine A(2A) receptor antagonists: [1,2,4]-triazolo[4,3-c]pyrimidin-3-ones” (Bioorg Med Chem Lett, 2011):

Assays:
[1] = tested on: Rattus norvegicus; experiment: Inhibition of haloperidol -induced catalepsy in rat at 10 mg/kg, po measured after 1 hr; format: functional
[2] = tested on: Rattus norvegicus; experiment: Inhibition of haloperidol -induced catalepsy in rat at 10 mg/kg, po measured after 4 hrs; format: functional
[3] = Solubility of the compound at pH 7.4; format: physicochemical; conditions: buffer
[4] = target: Adenosine receptor A2a (Homo sapiens, UniProt P29274); experiment: Antagonist activity against human adenosine A2A receptor; format: functional
[5] = species: Homo sapiens; experiment: Ratio of Ki for human adenosine A1 receptor to Ki for human adenosine A2A receptor
[6] = tested on: Rattus norvegicus; experiment: Intrinsic clearance in rat at 3 mg/kg; format: ADME, organism-based; design: dose 3 mg/kg; conditions: in vivo
[7] = AUC in rat at 3 mg/kg by LC-MS analysis; format: ADME, organism-based; design: dose 3 mg/kg; conditions: plasma
[8] = Drug uptake in rat brain at 3 mg/kg measured after 6 hrs; format: ADME, organism-based; design: dose 3 mg/kg; conditions: read-out: Drug uptake

Chain of Adenosine receptor A2a (P29274 whole entry): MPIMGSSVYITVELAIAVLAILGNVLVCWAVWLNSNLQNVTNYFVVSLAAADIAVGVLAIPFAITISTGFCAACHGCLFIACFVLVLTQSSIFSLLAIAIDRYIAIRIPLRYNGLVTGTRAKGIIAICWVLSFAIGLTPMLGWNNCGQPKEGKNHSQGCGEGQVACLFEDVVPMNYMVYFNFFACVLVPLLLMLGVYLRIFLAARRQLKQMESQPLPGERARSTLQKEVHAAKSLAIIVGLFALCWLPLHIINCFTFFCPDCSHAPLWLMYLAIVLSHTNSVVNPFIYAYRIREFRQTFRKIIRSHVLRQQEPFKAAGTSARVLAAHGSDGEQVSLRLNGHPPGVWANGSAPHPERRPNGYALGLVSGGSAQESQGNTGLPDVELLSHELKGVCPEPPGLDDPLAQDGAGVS

| Ki [4] [nM] | Ratio Ki [5] | solubility ([3]; read-out: solubility) [µM] | SMILES | further results |
| --- | --- | --- | --- | --- |
| – | – | – | COCCOc1ccc(N2CCN(CCn3ncc4c3nc(N)n3nc(-c5ccco5)nc43)CC2)cc1 [PRELADENANT] | inhibition in vivo at 10 mg/kg [1]: 75%; inhibition in vivo at 10 mg/kg [2]: 80%; solubility [3]: < 0.01 µg/mL |
| 1 | 26 | – | Nc1nc(-c2ccccc2)cc2nn(Cc3ccccc3)c(=O)n12 | – |
| 6.7 | 224 | – | Nc1nc2c(cnn2CCN2CCC(N3CCOCC3)CC2)c2nn(Cc3cccc(Cl)c3)c(=O)n12 | – |
| 791 | 2 | 100 | Nc1nc(-c2cccnc2)cc2nn(Cc3ccccc3)c(=O)n12 | – |
| 10.5 | 133 | 12 | CS(=O)(=O)N1CCN(CCn2ncc3c2nc(N)n2c(=O)n(Cc4cccc(Cl)c4)nc32)CC1 | – |
| 0.4 | 356 | 12 | C=Cn1ncc2c1nc(N)n1c(=O)n(Cc3cccc(Cl)c3)nc21 | inhibition in vivo at 10 mg/kg [1]: 13%; inhibition in vivo at 10 mg/kg [2]: 15%; CL [6]: 27.7 mL/min/kg |
| 8.7 | 162 | 75 | Nc1nc2c(cnn2CCN2CCC3(CC2)OCCO3)c2nn(Cc3ccccc3)c(=O)n12 | – |
| 27.4 | 55 | 175 | C=Cn1ncc2c1nc(N)n1c(=O)n(CC3CC3)nc21 | – |
| 28.4 | 53 | – | Nc1nc2c(cnn2CCN2CCC(N3CCOCC3)CC2)c2nn(Cc3ccccc3)c(=O)n12 | – |
| 381 | 4 | > 250 | Nc1nc2c(cnn2CCN2CCOCC2)c2nn(CC3CC3)c(=O)n12 | – |
| 12.9 | 109 | 25 | Nc1nc2c(cnn2CCN2CCN(c3cnccn3)CC2)c2nn(Cc3cccc(Cl)c3)c(=O)n12 | – |
| 11 | 127 | – | Nc1nc2c(cnn2CCN2CCC3(CC2)OCCO3)c2nn(Cc3cccc(Cl)c3)c(=O)n12 | – |
| 636 | 2 | 25 | COc1ccc(-c2cc3nn(Cc4ccccc4)c(=O)n3c(N)n2)cc1 | – |
| > 1500 | – | > 250 | CN(C)CCn1ncc2c1nc(N)n1c(=O)n(Cc3ccccc3)nc21 | – |
| 23.4 | 60 | – | Nc1nc2c(cnn2CCN2CCN(c3ccc(F)cc3F)CC2)c2nn(Cc3cccc(Cl)c3)c(=O)n12 | – |
| 1700 | 1 | 100 | Nc1nc(-c2cccc(CO)c2)cc2nn(Cc3ccccc3)c(=O)n12 | – |
| 0.3 | 1120 | 37 | C=Cn1ncc2c1nc(N)n1c(=O)n(Cc3ccccc3)nc21 | inhibition in vivo at 10 mg/kg [1]: 0%; inhibition in vivo at 10 mg/kg [2]: 8%; AUC [7]: 0.248 µM·h; concentration at 6 h [8]: 10 ng/g; CL [6]: 24.4 mL/min/kg |
| > 1300 | – | – | Nc1nc2c(cnn2CCN2CCN(c3ccc(F)cc3F)CC2)c2nn(Cc3ccccc3)c(=O)n12 | – |
| 7 | 3 | – | Nc1nc(-c2ccccc2)cc2nc(-c3ccco3)nn12 | – |
| 5.2 | 269 | 18 | CN(C)CCn1ncc2c1nc(N)n1c(=O)n(Cc3cccc(Cl)c3)nc21 | inhibition in vivo at 10 mg/kg [1]: 13%; inhibition in vivo at 10 mg/kg [2]: 20%; AUC [7]: 0.398 µM·h; concentration at 6 h [8]: 39 ng/g; CL [6]: 37.3 mL/min/kg |
| 556 | 2 | 25 | CC(C)(C)OC(=O)N1CCN(CCn2ncc3c2nc(N)n2c(=O)n(Cc4cccc(Cl)c4)nc32)CC1 | – |
| > 1300 | – | 12 | COCCOc1ccc(N2CCN(CCn3ncc4c3nc(N)n3c(=O)n(Cc5ccccc5)nc43)CC2)c(F)c1 | – |
| 15.6 | 90 | 12 | COCCOc1ccc(N2CCN(CCn3ncc4c3nc(N)n3c(=O)n(Cc5cccc(Cl)c5)nc43)CC2)c(F)c1 | – |
| 0.5 | 43 | – | Nc1nc2c(c3nn(Cc4ccccc4)c(=O)n13)CCc1ccccc1-2 | inhibition in vivo at 10 mg/kg [1]: 0%; inhibition in vivo at 10 mg/kg [2]: 18%; concentration at 6 h [8]: 10 ng/g; CL [6]: 14.7 mL/min/kg |
| 8.9 | 157 | 75 | CS(=O)(=O)N1CCN(CCn2ncc3c2nc(N)n2c(=O)n(Cc4ccccc4)nc32)CC1 | – |
| 9 | 156 | 175 | Nc1nc2c(cnn2CCN2CCOCC2)c2nn(Cc3ccccc3)c(=O)n12 | – |
| 12.7 | 110 | 50 | Nc1nc2c(cnn2CCN2CCN(c3cnccn3)CC2)c2nn(Cc3ccccc3)c(=O)n12 | – |
| > 1300 | – | 100 | CC(C)(C)OC(=O)N1CCN(CCn2ncc3c2nc(N)n2c(=O)n(Cc4ccccc4)nc32)CC1 | – |
| 14.2 | 99 | 25 | Nc1nc2c(cnn2CCN2CCOCC2)c2nn(Cc3cccc(Cl)c3)c(=O)n12 | – |

| SMILES | Ki [4] [nM] | Ratio Ki [5] | solubility ([3]; read-out: solubility) [µM] | further results |
| --- | --- | --- | --- | --- |
| CN(C)CCn1ncc2c1nc(N)n1c(=O)n(CC3CC3)nc21 | > 1500 | – | > 250 | – |
